Results taken from patent US9211310B2, “Use of a Chinese medicine composition in preparing medicaments for treating secondary prevention of myocardial infarction” (TASLY PHARMACEUTICAL GROUP CO., LTD, priority 2010, dated 2015).

Tested on: patients after acute myocardial infarction
Test: TCM symptom score, total and single (chest pain, chest tightness, short breath, fatigue, palpitation, spontaneous perspiration, pale complexion), same clinical trial
Type: in vivo, human
Design: total score of TCM symptom, Mean / total score of TCM symptom, Min / total score of TCM symptom, Max / total score of TCM symptom, Md / change of total score of TCM symptom, Mean / change of total score of TCM symptom, Max / change of total score of TCM symptom, Md: scale not given here
Settings: FAS
From the text: 3508 patients who were in accordance with the diagnostic standards of AMI for 28 days to 2 years and differentiated as Qi deficiency and blood stagnation syndrome by TCM were studied. 0.5 g Chinese medicine composition prepared by the method of EXAMPLE 1 (Coded as QSYQ) was administrated half an hour after meal, 3 times per day.
They included the overall survival time, angina pectoris score, TCM symptom score and life quality score, where angina pectoris score, TCM symptom score and life quality score were evaluated at randomization, in 1st, 3rd, 6th, 9th, 12th month after treatment and 18th month after follow-up.
The analysis method referred to the angina pectoris score.

[1] = 9 months after treatment-baseline
[2] = 12 months after treatment-baseline

CC(=O)Oc1ccccc1C(=O)O [Control group, aspirine]
change of pale complexion −1, number of patients [1]: 59 | change of pale complexion −1, percent of patients [1]: (3.45%) | change of palpitation 0, number of patients [1]: 948 | change of palpitation 0, percent of patients [1]: (55.44%) | change of palpitation 1, number of patients [1]: 557 | change of palpitation 1, percent of patients [1]: (32.57%) | change of palpitation 2, number of patients [1]: 76 | change of palpitation 2, percent of patients [1]: (4.44%) | change of palpitation 3, number of patients [1]: 7 | change of palpitation 3, percent of patients [1]: (0.41%) | change of palpitation −1, percent of patients [1]: (6.84%) | change of palpitation −2, number of patients [1]: 5 | change of palpitation −2, percent of patients [1]: (0.29%) | change of palpitation −3, number of patients [1]: 0 | change of palpitation −3, percent of patients [1]: (0.00%) | change of short breath 0, % of patients [1]: (59.06%) | change of short breath 0, number of patients [1]: 1010 | change of short breath 2, % of patients [1]: (30.35%) | change of short breath 2, number of patients [1]: 519 | change of short breath 4, % of patients [1]: (3.57%) | change of short breath 4, number of patients [1]: 61 | change of short breath 6, % of patients [1]: (0.47%) | change of short breath 6, number of patients [1]: 8 | change of short breath −2, % of patients [1]: (6.26%) | change of short breath −2, number of patients [1]: 107 | change of short breath −4, % of patients [1]: (0.23%) | change of short breath −4, number of patients [1]: 4 | change of short breath −6, % of patients [1]: (0.06%) | change of short breath −6, number of patients [1]: 1 | change of spontaneous perspiration 0, number of patients [1]: 910 | change of spontaneous perspiration 0, percent of patients [1]: (53.25%) | change of spontaneous perspiration 1, number of patients [1]: 491 | change of spontaneous perspiration 1, percent of patients [1]: (28.73%) | change of spontaneous perspiration 2, number of patients [1]: 113 | change of spontaneous perspiration 2, percent of patients [1]: (6.61%) | change of spontaneous perspiration 3, number of patients [1]: 31 | change of spontaneous perspiration 3, percent of patients [1]: (1.81%) | change of spontaneous perspiration −1, number of patients [1]: 154 | change of spontaneous perspiration −1, percent of patients [1]: (9.01%) | change of spontaneous perspiration −2, number of patients [1]: 10 | change of spontaneous perspiration −2, percent of patients [1]: (0.59%) | change of spontaneous perspiration −3, number of patients [1]: 0 | change of spontaneous perspiration −3, percent of patients [1]: (0.00%) | change of total score of TCM symptom, Max [1]: 15.00 | change of total score of TCM symptom, Md [1]: −4.00 | change of total score of TCM symptom, Mean [1]: −4.52 | change of total score of TCM symptom, Min [1]: −33.00 | change of short breath 0, number of patients (12 months after treatment): 955 | distribution of total score of TCM symptom: Medium, number of patients (12 months after treatment): 235 | distribution of total score of TCM symptom: Medium, percentage of patients (12 months after treatment): (16.31%) | distribution of total score of TCM symptom: Mild, number of patients (12 months after treatment): 1205 | distribution of total score of TCM symptom: Mild, percentage of patients (12 months after treatment): (83.62%) | distribution of total score of TCM symptom: Severe, number of patients (12 months after treatment): 1 | distribution of total score of TCM symptom: Severe, percentage of patients (12 months after treatment): (0.07%) | fatigue score 0, % of patients (12 months after treatment): (36.67%) | fatigue score 0, number of patients (12 months after treatment): 630 | fatigue score 2, % of patients (12 months after treatment): (58.21%) | fatigue score 2, number of patients (12 months after treatment): 1000 | fatigue score 4, % of patients (12 months after treatment): (4.42%) | fatigue score 4, number of patients (12 months after treatment): 76 | fatigue score 6, % of patients (12 months after treatment): (0.70%) | fatigue score 6, number of patients (12 months after treatment): 12 | pale complexion score 0, number of patients (12 months after treatment): 1011 | pale complexion score 0, percent of patients (12 months after treatment): (58.85%) | pale complexion score 1, number of patients (12 months after treatment): 590 | pale complexion score 1, percent of patients (12 months after treatment): (34.34%) | pale complexion score 2, number of patients (12 months after treatment): 104 | pale complexion score 2, percent of patients (12 months after treatment): (6.05%) | pale complexion score 3, number of patients (12 months after treatment): 13 | pale complexion score 3, percent of patients (12 months after treatment): (0.76%) | palpitation score 0, number of patients (12 months after treatment): 669 | palpitation score 0, percent of patients (12 months after treatment): (38.94%) | palpitation score 2, number of patients (12 months after treatment): 892 | palpitation score 2, percent of patients (12 months after treatment): (51.92%) | palpitation score 4, number of patients (12 months after treatment): 138 | palpitation score 4, percent of patients (12 months after treatment): (8.03%) | palpitation score 6, number of patients (12 months after treatment): 19 | palpitation score 6, percent of patients (12 months after treatment): (1.11%) | short breath score 0, % of patients (12 months after treatment): (31.72%) | short breath score 0, number of patients (12 months after treatment): 545 | short breath score 3, % of patients (12 months after treatment): (57.92%) | short breath score 3, number of patients (12 months after treatment): 995 | short breath score 6, % of patients (12 months after treatment): (10.07%) | short breath score 6, number of patients (12 months after treatment): 173 | short breath score 9, % of patients (12 months after treatment): (0.29%) | short breath score 9, number of patients (12 months after treatment): 5 | spontaneous perspiration score 0, number of patients (12 months after treatment): 845 | spontaneous perspiration score 0, percent of patients (12 months after treatment): (49.19%) | spontaneous perspiration score 1, number of patients (12 months after treatment): 804 | spontaneous perspiration score 1, percent of patients (12 months after treatment): (46.80%) | spontaneous perspiration score 2, number of patients (12 months after treatment): 58 | spontaneous perspiration score 2, percent of patients (12 months after treatment): (3.38%) | spontaneous perspiration score 3, number of patients (12 months after treatment): 11 | spontaneous perspiration score 3, percent of patients (12 months after treatment): (0.64%) | total score of TCM symptom, Max (12 months after treatment): 37.00 | total score of TCM symptom, Md (12 months after treatment): 8.00 | total score of TCM symptom, Mean (12 months after treatment): 8.41 | total score of TCM symptom, Min (12 months after treatment): 0.00 | change of fatigue 0, % of patients [2]: (47.08%) | change of fatigue 0, number of patients [2]: 805 | change of fatigue 2, % of patients [2]: (35.38%) | change of fatigue 2, number of patients [2]: 605 | change of fatigue 4, % of patients [2]: (9.59%) | change of fatigue 4, number of patients [2]: 164 | change of fatigue 6, % of patients [2]: (1.46%) | change of fatigue 6, number of patients [2]: 25 | change of fatigue −2, % of patients [2]: (5.85%) | change of fatigue −2, number of patients [2]: 100 | change of fatigue −4, % of patients [2]: (0.64%) | change of fatigue −4, number of patients [2]: 11 | change of fatigue −6, % of patients [2]: (0.00%) | change of fatigue −6, number of patients [2]: 0 | change of pale complexion 0, number of patients [2]: 1202 | change of pale complexion 0, percent of patients [2]: (70.37%) | change of pale complexion 1, number of patients [2]: 450 | change of pale complexion 1, percent of patients [2]: (26.35%) | change of pale complexion −1, number of patients [2]: 56 | change of pale complexion −1, percent of patients [2]: (3.28%) | change of palpitation 0, number of patients [2]: 882 | change of palpitation 0, percent of patients [2]: (51.58%) | change of palpitation 1, number of patients [2]: 602 | change of palpitation 1, percent of patients [2]: (35.20%) | change of palpitation 2, number of patients [2]: 102 | change of palpitation 2, percent of patients [2]: (5.96%)
